Assays:
[1] = biological target: T1, human CYP11B1 (Homo sapiens, UniProt P15538); assay: Inhibitor potency for human CYP11B1 in V79 cells expressing the enzyme (HPLC steroid analysis); type: cell-based; settings: V79 cells (over)expressing human CYP11B1; 1 hour with inhibitor, then 11-deoxycorticosterone 500 nM for another hour; read-out: IC50 11B1
T1 construct: The full length cDNA for human CYP11B1 was obtained by PCR from human adrenal cDNA; expressed in transfected cells; host or cells: V79 Chinese hamster cells, stably transfected with pcDNA3.1 (hygromycin resistance)
T1 sequence (P15538 25-503): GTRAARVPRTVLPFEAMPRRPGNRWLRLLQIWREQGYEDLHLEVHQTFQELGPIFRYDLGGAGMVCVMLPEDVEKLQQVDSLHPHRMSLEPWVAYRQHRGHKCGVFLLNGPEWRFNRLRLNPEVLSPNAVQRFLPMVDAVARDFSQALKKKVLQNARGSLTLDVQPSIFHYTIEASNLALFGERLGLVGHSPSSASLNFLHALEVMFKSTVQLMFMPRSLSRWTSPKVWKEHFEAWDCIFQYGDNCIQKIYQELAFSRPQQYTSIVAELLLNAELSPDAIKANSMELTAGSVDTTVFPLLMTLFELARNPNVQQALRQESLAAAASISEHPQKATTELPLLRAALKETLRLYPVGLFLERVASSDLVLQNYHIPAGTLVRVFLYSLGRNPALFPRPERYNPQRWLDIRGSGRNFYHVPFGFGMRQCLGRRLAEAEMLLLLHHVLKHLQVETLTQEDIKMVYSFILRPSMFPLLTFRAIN
Procedure: (§1) Inhibitor potencies for human CYP11B1 and CYP11B2 were determined in an in vitro assay using V79 cells in which human CYP11B1 or CYP11B2 are expressed.
The human CYP11B1 (over)expressing V79 cells (stably transfected with a pcDNA3.1 vector, carrying a hygromycin resistance box) were constructed at Organon (Newhouse, UK) in the following manner. The full length cDNA for human CYP11B1 was obtained by PCR from human adrenal cDNA as described by Kawamoto et al ("Cloning of cDNA and genomic DNA for human cytochrome P-45011 beta" FEBS Lett 1990;269:345-9) and cloned into pPCR SCRIPT (Stratagene, La Jolla, USA). After digestion with Xho I and Not I, the obtained cDNA was inserted into a Xho I/Not I digested pcDNA3.1 vector (InVitrogen, Breda, Netherlands), carrying a hygromycin resistance box. Following transfection to the V79 cells, positive cells were selected based on their hygromycin resistance. The presence of the CYP11B1 gene was confirmed by PCR and the presence of 11β-hydroxylase activity (i.e. the ability to produce corticosterone or cortisol from 11-deoxycorticosterone or 11-deoxycortisol respectively). […] In normal (non transfected) V79 cells, no detectable 11β-hydroxylase activity or PCR signals were found.
(§2) Cells were cultured under standard conditions in DMEM/FK12 medium (Gibco, Gaitersburg, USA) supplemented with 10% foetal calf serum (Hyclone, Logan, USA), penicillin/streptomycin (100 U/ml and 100 µg/ml, respectively Gibco). Cell culturing and incubation experiments (see below) with the cells were performed at 37°C in a humid environment and 5%CO2 atmosphere.
(§3) Next, cells were incubated for 1 hour in serum free medium with cumulative inhibitor concentrations. […] After these incubation times, medium was collected for steroid analysis by HPLC. To extract the (produced) steroids from the medium, 1 ml aliquots of medium were mixed with 1 ml 1 M sodium-glycine buffer (pH 10.5) containing 500 nM methylprednisolone (Sigma-Aldrich) as internal standard and 5 ml of diethylether (Biosolve, Valkenswaard, the Netherlands). After shaking for 3 minutes, the samples were briefly centrifuged and the organic phase (containing the steroids) transferred into another tube and blown to dryness under a stream of nitrogen. The dried extracts were dissolved in 100 µl of mobile phase to be used for automated HPLC analysis. The HPLC system comprised a MR column (4.6 x 50 mm, particle size 2.5 µm; Shimadzu, Tokyo, Japan) as a stationary phase and a mixture of 680/320/1 (v/v/v) milliQ water, acetonitrile and trifluoro-acetic acid as mobile phase at a flow rate of 1.0 ml/minute. Steroids were detected by UV absorption at 243 nm (Shimadzu, Tokyo, Japan). To quantitate the steroids, peak area ratios versus the internal standard (methylprednisolone) were determined and compared with calibration curves.
(§4) Determination of IC50 values (potencies) was based on at least 5 inhibitor concentrations and was derived from the generic equation for enzyme inhibition at fixed substrate concentration vi = v0/(1 + I/IC50) with vi and v0 being the reaction velocities in the presence or absence of inhibitor respectively, and I being the inhibitor concentration (Cornish-Bowden A, "Analysis of enzyme kinetic data.", Oxford University Press, Oxford, 1995). All analyses were conducted at least in duplicate. […]

[2] = biological target: T2, human CYP11B2 (Homo sapiens, UniProt P19099); assay: Inhibitor potency for human CYP11B2 in V79 cells expressing the enzyme (HPLC steroid analysis); type: cell-based; settings: for Ratio: Ratio = IC50 CYP11B1/ IC50 CYP11B2 (selectivity); for IC50: V79 cells stably (over)expressing human CYP11B2, 1 hour with inhibitor, then 11-deoxycorticosterone 500 nM for three hours, read-out: IC50 11B2
T2 construct: expressed in transfected cells; host or cells: V79 Chinese hamster cells
T2 sequence (P19099 25-503): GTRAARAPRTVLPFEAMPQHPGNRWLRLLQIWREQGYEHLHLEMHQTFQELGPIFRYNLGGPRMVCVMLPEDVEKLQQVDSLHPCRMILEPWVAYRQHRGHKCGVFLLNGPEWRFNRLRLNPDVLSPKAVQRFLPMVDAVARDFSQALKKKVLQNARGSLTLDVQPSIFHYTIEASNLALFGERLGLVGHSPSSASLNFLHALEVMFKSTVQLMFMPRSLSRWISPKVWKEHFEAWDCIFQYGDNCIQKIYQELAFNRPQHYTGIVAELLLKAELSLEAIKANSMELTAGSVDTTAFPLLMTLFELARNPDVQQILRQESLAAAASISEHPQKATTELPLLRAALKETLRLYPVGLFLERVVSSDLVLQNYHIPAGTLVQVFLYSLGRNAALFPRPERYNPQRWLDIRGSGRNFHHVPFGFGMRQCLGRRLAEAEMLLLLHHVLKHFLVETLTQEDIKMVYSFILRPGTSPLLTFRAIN
Procedure: as §1
The V79 cells stably (over)expressing human CYP11 B2 were developed in the laboratory of Prof. Rita Bernhardt, Institute of Biochemistry, Saarland University, Saarbrücken, Germany : • Denner K, Doehmer J,Bernhardt R. "Cloning of CYP11B1 and CYP11B2 from normal human adrenal and their functional expression in COS-7 and V79 Chinese hamster cells" Endocr Res 1995;21:443-8; • Bottner B, Denner K, Bernhardt R "Conferring aldosterone synthesis to human CYP11B1 by replacing key amino acid residues with CYP11B2 ones", Eur. J. Biochem. 1998; 252: 458-466; • Denner K, Vogel R, Schmalix W, Doehmer J, Bernhardt R.: "Cloning and stable expression of the human mitochondrial cytochrome P45011B1 cDNA in V79 Chinese hamster cells and their application for testing of potential inhibitors." Pharmacogenetics 1995; 5: 89-96; • Denner K, Bernhardt R. "Inhibition studies of steroid conversions mediated by human CYP11B1 and CYP11B2 expressed in cell cultures". In: Oxygen Homeostasis and Its Dynamics. Springer-Verlag, Tokyo, Berlin, Heidelberg, New York 1998, pp 231-236; • Ehmer PB, Bureik M, Bernhardt R, Muller U, Hartmann RW. "Development of a test system for inhibitors of human aldosterone synthase (CYP11B2): screening in fission yeast and evaluation of selectivity in V79 cells." J. Steroid Biochem Mol Biol. 2002; 81: 173-179.
as §2, §3, §4

| Compound | IC50 [1] | Ratio [2] | IC50 [2] |
| --- | --- | --- | --- |
| COC(=O)CCc1cncn1Cc1ccc(Br)cc1 [Compound 20, Methyl 3-[1-(4-bromobenzyl)-1H-imidazol-5-yl]propanoate] | 57.4 nM | 14.4 | 4 nM |
| N#Cc1ccc(Cn2cncc2-c2ccccc2)cc1 [Compound 43, 4-[(5-Phenyl-1H-imidazol-1-yl)methyl]benzonitrile] | 27.5 nM | 15.7 | 1.7 nM |
| O=[N+]([O-])c1ccc(Cn2cncc2-c2ccccc2)cc1 [Compound 50, 1-(4-Nitrobenzyl)-5-phenyl-1H-imidazole] | 13.7 nM | 5.9 | 2.3 nM |
| Cc1ccccc1-c1cncn1Cc1ccc(C#N)cc1 [Compound 57, 4-[(5-(2-Methylphenyl)-1H-imidazol-1-yl)methyl]benzonitrile] | 7.6 nM | 10.5 | 0.7 nM |
| N#Cc1ccc(Cn2cncc2-c2cccc(F)c2)cc1 [Compound 58, 4-[(5-(3-Fluorophenyl)-1H-imidazol-1-yl)methyl]benzonitrile] | 31.8 nM | 5.8 | 5.5 nM |

Further lines, results first:

| IC50 [1] | Ratio [2] | IC50 [2] | Compound |
| --- | --- | --- | --- |
| 116 nM | 6.9 | 16.8 nM | OCCCc1cncn1Cc1ccc(F)cc1 [Compound 15, 3-[1-(4-Fluorobenzyl)-1H-imidazol-5-yl]propanol] |
| 31.1 nM | 8.9 | 3.5 nM | COC(=O)CCc1cncn1Cc1ccc(C#N)cc1 [Compound 18, Methyl 3-[1-(4-cyanobenzyl)-1H-imidazol-5-yl]propanoate] |
| 140 nM | 11.4 | 12.3 nM | Cc1cncn1Cc1ccc(C#N)cc1 [Compound 42, 4-[(5-Methyl-1H-imidazol-1-yl)methyl]benzonitrile] |
| 478 nM | 7.7 | 61.8 nM | N#Cc1ccc(Cn2cncc2C=O)cc1 [Compound 44, 4-[(5-Formyl-1H-imidazol-1-yl)methyl]benzonitrile] |
| 47.8 nM | 6.7 | 7.1 nM | COC(=O)c1cncn1Cc1ccc(C#N)cc1 [Compound 45, Methyl 1-(4-cyanobenzyl)-1H-imidazole-5-carboxylate] |
| 285 nM | 10 | 28.5 nM | N#Cc1ccc(Cn2cncc2CO)cc1 [Compound 52, 1-(4-cyanobenzyl)-5-hydroxymethyl-1H-imidazole] |
